Consider 22 molecules from patent publication US12473304B2, “Heterocyclic PAD4 inhibitors” (BRISTOL-MYERS SQUIBB COMPANY, priority 2020, dated 2025).

human PAD4 (hPAD4), sequence (Q9UM07 whole entry): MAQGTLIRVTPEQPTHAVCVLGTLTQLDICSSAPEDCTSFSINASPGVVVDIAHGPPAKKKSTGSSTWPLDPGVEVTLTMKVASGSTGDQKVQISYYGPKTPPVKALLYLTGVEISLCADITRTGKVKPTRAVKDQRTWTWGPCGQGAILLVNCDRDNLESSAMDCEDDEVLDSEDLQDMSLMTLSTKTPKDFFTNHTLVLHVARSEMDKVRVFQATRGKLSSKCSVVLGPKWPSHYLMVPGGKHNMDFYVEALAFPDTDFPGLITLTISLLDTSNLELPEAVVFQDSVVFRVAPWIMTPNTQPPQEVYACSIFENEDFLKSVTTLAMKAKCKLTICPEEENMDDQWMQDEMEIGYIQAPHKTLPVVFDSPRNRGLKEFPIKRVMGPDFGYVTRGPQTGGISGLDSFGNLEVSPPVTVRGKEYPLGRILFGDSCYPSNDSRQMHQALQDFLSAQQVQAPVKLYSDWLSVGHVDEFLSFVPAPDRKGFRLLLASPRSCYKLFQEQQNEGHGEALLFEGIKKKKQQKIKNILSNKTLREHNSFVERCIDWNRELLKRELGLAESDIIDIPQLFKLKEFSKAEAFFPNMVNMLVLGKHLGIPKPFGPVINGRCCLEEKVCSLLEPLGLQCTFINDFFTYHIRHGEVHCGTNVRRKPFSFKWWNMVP

This assay concerns the target human PAD4 (hPAD4) (Homo sapiens (Human), UniProt Q9UM07). The assay can be described thus: RFMS Human PAD4 Functional Assay 1. In kind it is biochemical. The conditions noted are these: RFMS assay 1; 5 nM hPAD4, 250 μM BAEE substrate, 50 μM calcium, 37° C. In short, it runs like this: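 Recombinant hPAD4 (5 nM) was preincubated with compound (top 50 μM, 0.5% DMSO) for 30 min at 37 °C, then reacted with 250 μM BAEE for 90 min at 37 °C in pH 7.5 HEPES buffer with 50 μM calcium and 5 μM TPEN. Product was derivatized with phenyl glyoxal and quantified by RapidFire MS.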
As for `COc1cc(C(=O)N2CC3CCC2[C@@H]3N)cc2oc(-c3cc4ccc(C(C)(C)O)nc4n3CC3CC3)c(C)c12` (stereo partly drawn) [Example 203, ((7R)-7-Amino-2-azabicyclo[2.2.1]heptan-2-yl)(2-(1-(cyclopropylmethyl)-6-(2-hydroxypropan-2-yl)-1H-pyrrolo[2,3-b]pyridin-2-yl)-4-methoxy-3-methylbenzofuran-6-yl)methanone], the IC50 – broadly, the concentration that inhibits the measured activity by half – amounted to 0.012 µM.

For the molecule `Cc1c(-c2cc3ccc(C(C)(C)O)cc3n2CC2CC2)oc2cc(C(=O)N3CC4CCC3[C@@H]4N)ccc12` (stereo partly drawn) [Example 204, ((7R)-7-Amino-2-azabicyclo[2.2.1]heptan-2-yl)(2-(1-(cyclopropylmethyl)-6-(2-hydroxypropan-2-yl)-1H-indol-2-yl)-3-methylbenzofuran-6-yl)methanone], the concentration for half-maximal inhibition (IC50) was 0.039 µM.

With `COc1cc(C(=O)N2CC3CCC2[C@@H]3N)cn2nc(-c3cc4ccc(-c5ccccc5N5CCNC5=O)nc4n3CC3CC3)c(C)c12` (stereo partly drawn) [Example 205, 1-[2-(2-{6-[(7R)-7-Amino-2-azabicyclo[2.2.1]heptane-2-carbonyl]-4-methoxy-3-methylpyrazolo[1,5-a]pyridin-2-yl}-1-(cyclopropylmethyl)-1H-pyrrolo[2,3-b]pyridin-6-yl)phenyl]imidazolidin-2-one], the IC50 came out at 0.06 µM.

For the molecule `COc1cc(C(=O)N2CC3CCC2[C@@H]3N)cn2nc(-c3cc4ccc(-c5ccc(C(N)=O)c(C)c5)nc4n3CC3CC3)c(C)c12` (stereo partly drawn) [Example 206, 4-(2-{6-[(7R)-7-Amino-2-azabicyclo[2.2.1]heptane-2-carbonyl]-4-methoxy-3-methylpyrazolo[1,5-a]pyridin-2-yl}-1-(cyclopropylmethyl)-1H-pyrrolo[2,3-b]pyridin-6-yl)-2-methylbenzamide], the IC50 was 0.07 µM.

Turning to `COc1cc(C(=O)N2C[C@H](N)C[C@@H](F)C2)cn2nc(-c3cc4ccc(-c5ccccc5CO)cc4n3CC3CC3)c(C)c12` [Example 209, [2-(2-{6-[(3R,5R)-3-Amino-5-fluoropiperidine-1-carbonyl]-4-methoxy-3-methylpyrazolo[1,5-a]pyridin-2-yl}-1-(cyclopropylmethyl)-1H-indol-6-yl)phenyl]methanol], the half-maximal inhibitory concentration (IC50) was 1.08 µM.

For the molecule `COc1cc(C(=O)N2C[C@H](N)C[C@@H](F)C2)cn2nc(-c3cc4ccc(-c5cccc(CO)c5)cc4n3CC3CC3)c(C)c12` [Example 210, [3-(2-{6-[(3R,5R)-3-Amino-5-fluoropiperidine-1-carbonyl]-4-methoxy-3-methylpyrazolo[1,5-a]pyridin-2-yl}-1-(cyclopropylmethyl)-1H-indol-6-yl)phenyl]methanol], the IC50 was 0.49 µM.

`COc1cc(C(=O)N2C[C@H](N)C[C@@H](F)C2)cn2nc(-c3cc4ccc(-c5cccc(CNS(C)(=O)=O)c5)cc4n3CC3CC3)c(C)c12` [Example 211, N-{[3-(2-{6-[(3R,5R)-3-Amino-5-fluoropiperidine-1-carbonyl]-4-methoxy-3-methylpyrazolo[1,5-a]pyridin-2-yl}-1-(cyclopropylmethyl)-1H-indol-6-yl)phenyl]methyl}methanesulfonamide]: the half-inhibitory concentration (IC50) is 1.05 µM.

`COc1cccc(-c2ccc3cc(-c4nn5cc(C(=O)N6C[C@H](N)C[C@@H](F)C6)cc(OC)c5c4C)n(CC4CC4)c3c2)c1` [Example 212, (3R,5R)-1-{2-[1-(Cyclopropylmethyl)-6-(3-methoxyphenyl)-1H-indol-2-yl]-4-methoxy-3-methylpyrazolo[1,5-a]pyridine-6-carbonyl}-5-fluoropiperidin-3-amine]: the IC50 worked out at 1.69 µM.

`COc1cc(C(=O)N2C[C@H](N)C[C@@H](F)C2)cn2nc(-c3cc4ccc(-c5cccc(NS(C)(=O)=O)c5)cc4n3CC3CC3)c(C)c12` [Example 213, N-[3-(2-{6-[(3R,5R)-3-Amino-5-fluoropiperidine-1-carbonyl]-4-methoxy-3-methylpyrazolo[1,5-a]pyridin-2-yl}-1-(cyclopropylmethyl)-1H-indol-6-yl)phenyl]methanesulfonamide]: the IC50 stood at 0.68 µM.

Take `COc1cc(C(=O)N2C[C@H](N)C[C@@H](F)C2)cn2nc(-c3cc4ccc(-c5ccc(NC(C)=O)cc5)cc4n3CC3CC3)c(C)c12` [Example 214, N-[4-(2-{6-[(3R,5R)-3-Amino-5-fluoropiperidine-1-carbonyl]-4-methoxy-3-methylpyrazolo[1,5-a]pyridin-2-yl}-1-(cyclopropylmethyl)-1H-indol-6-yl)phenyl]acetamide]: the IC50 amounted to 0.15 µM.

In the case of `COc1cc(C(=O)N2C[C@H](N)C[C@@H](F)C2)cn2nc(-c3cc4ccc(-c5cccc(CNC(C)=O)c5)cc4n3CC3CC3)c(C)c12` [Example 215, N-{[3-(2-{6-[(3R,5R)-3-Amino-5-fluoropiperidine-1-carbonyl]-4-methoxy-3-methylpyrazolo[1,5-a]pyridin-2-yl}-1-(cyclopropylmethyl)-1H-indol-6-yl)phenyl]methyl}acetamide], the half-inhibitory concentration (IC50) worked out at 0.61 µM.

Take `COc1cc(C(=O)N2C[C@H](N)C[C@@H](F)C2)cn2nc(-c3cc4ccc(-c5ccc(NS(C)(=O)=O)cc5)cc4n3CC3CC3)c(C)c12` [Example 216, N-[4-(2-{6-[(3R,5R)-3-Amino-5-fluoropiperidine-1-carbonyl]-4-methoxy-3-methylpyrazolo[1,5-a]pyridin-2-yl}-1-(cyclopropylmethyl)-1H-indol-6-yl)phenyl]methanesulfonamide]: the concentration for half-maximal inhibition (IC50) is 0.27 µM.

With `COc1cc(C(=O)N2C[C@H](N)C[C@@H](F)C2)cn2nc(-c3cc4ccc(-c5ccc(C(=O)N(C)C)cc5)cc4n3CC3CC3)c(C)c12` [Example 217, 4-(2-{6-[(3R,5R)-3-Amino-5-fluoropiperidine-1-carbonyl]-4-methoxy-3-methylpyrazolo[1,5-a]pyridin-2-yl}-1-(cyclopropylmethyl)-1H-indol-6-yl)-N,N-dimethylbenzamide], the IC50 stood at 0.26 µM.

For the molecule `COc1cc(C(=O)N2C[C@H](N)C[C@@H](F)C2)cn2nc(-c3cc4ccc(-c5ccc6[nH]ncc6c5)cc4n3CC3CC3)c(C)c12` [Example 218, (3R,5R)-1-{2-[1-(Cyclopropylmethyl)-6-(1H-indazol-5-yl)-1H-indol-2-yl]-4-methoxy-3-methylpyrazolo[1,5-a]pyridine-6-carbonyl}-5-fluoropiperidin-3-amine], the IC50 was determined as 0.55 µM.

Take `COc1cc(C(=O)N2C[C@H](N)C[C@@H](F)C2)cn2nc(-c3cc4ccc(-c5ccc6c(cnn6C)c5)cc4n3CC3CC3)c(C)c12` [Example 219, (3R,5R)-1-{2-[1-(Cyclopropylmethyl)-6-(1-methyl-1H-indazol-5-yl)-1H-indol-2-yl]-4-methoxy-3-methylpyrazolo[1,5-a]pyridine-6-carbonyl}-5-fluoropiperidin-3-amine]: the IC50 turned out to be 0.46 µM.

Consider `COc1cc(C(=O)N2C[C@H](N)C[C@@H](F)C2)cn2nc(-c3cc4ccc(-c5cccc(-c6nn[nH]n6)c5)cc4n3CC3CC3)c(C)c12` [Example 220, (3R,5R)-1-{2-[1-(Cyclopropylmethyl)-6-[3-(2H-1,2,3,4-tetrazol-5-yl)phenyl]-1H-indol-2-yl]-4-methoxy-3-methylpyrazolo[1,5-a]pyridine-6-carbonyl}-5-fluoropiperidin-3-amine], for which the half-maximal inhibitory concentration (IC50) is 4.34 µM.

As to `COc1cc(C(=O)N2C[C@H](N)C[C@@H](F)C2)cn2nc(-c3cc4ccc(-c5ccc(CNC(C)=O)cc5)cc4n3CC3CC3)c(C)c12` [Example 221, N-{[4-(2-{6-[(3R,5R)-3-Amino-5-fluoropiperidine-1-carbonyl]-4-methoxy-3-methylpyrazolo[1,5-a]pyridin-2-yl}-1-(cyclopropylmethyl)-1H-indol-6-yl)phenyl]methyl}acetamide], the concentration for half-maximal inhibition (IC50) turned out to be 0.51 µM.

For the molecule `COc1cc(C(=O)N2C[C@H](N)C[C@@H](F)C2)cn2nc(-c3cc4ccc(-c5cccc6[nH]ncc56)cc4n3CC3CC3)c(C)c12` [Example 222, (3R,5R)-1-{2-[1-(Cyclopropylmethyl)-6-(1H-indazol-4-yl)-1H-indol-2-yl]-4-methoxy-3-methylpyrazolo[1,5-a]pyridine-6-carbonyl}-5-fluoropiperidin-3-amine], the 50% inhibitory concentration (IC50) was 1.01 µM.

Take `COc1cc(C(=O)N2C[C@H](N)C[C@@H](F)C2)cn2nc(-c3cc4ccc(-c5ccccc5C(N)=O)cc4n3CC3CC3)c(C)c12` [Example 223, 2-(2-{6-[(3R,5R)-3-Amino-5-fluoropiperidine-1-carbonyl]-4-methoxy-3-methylpyrazolo[1,5-a]pyridin-2-yl}-1-(cyclopropylmethyl)-1H-indol-6-yl)benzamide]: the IC50 came to 0.13 µM.

As to `COc1cc(C(=O)N2C[C@H](N)C[C@@H](F)C2)cn2nc(-c3cc4ccc(-c5ccc(CNS(C)(=O)=O)cc5)cc4n3CC3CC3)c(C)c12` [Example 224, N-{[4-(2-{6-[(3R,5R)-3-Amino-5-fluoropiperidine-1-carbonyl]-4-methoxy-3-methylpyrazolo[1,5-a]pyridin-2-yl}-1-(cyclopropylmethyl)-1H-indol-6-yl)phenyl]methyl}methanesulfonamide], the half-maximal inhibitory concentration (IC50) was 1.07 µM.

As to `COc1cc(C(=O)N2C[C@H](N)C[C@@H](F)C2)cn2nc(-c3cc4ccc(-c5cc(F)c6[nH]c(=O)ccc6c5C)cc4n3CC3CC3)c(C)c12` [Example 225, 6-(2-{6-[(3R,5R)-3-Amino-5-fluoropiperidine-1-carbonyl]-4-methoxy-3-methylpyrazolo[1,5-a]pyridin-2-yl}-1-(cyclopropylmethyl)-1H-indol-6-yl)-8-fluoro-5-methyl-1,2-dihydroquinolin-2-one], the IC50 amounted to 0.08 µM.

Turning to `COc1cc(C(=O)N2C[C@H](N)C[C@@H](F)C2)cn2nc(-c3cc4ccc(-c5ccc(NC(C)=O)nc5)cc4n3CC3CC3)c(C)c12` [Example 226, N-[5-(2-{6-[(3R,5R)-3-Amino-5-fluoropiperidine-1-carbonyl]-4-methoxy-3-methylpyrazolo[1,5-a]pyridin-2-yl}-1-(cyclopropylmethyl)-1H-indol-6-yl)pyridin-2-yl]acetamide], the IC50 was 0.05 µM.
